Results on 65 molecules are retold here after a melting point compilation (Tetko et al.; mined from patent text by program, amines drawn as free bases though some values may be those of a salt).

Molecules are shown by their SMILES.

The melting point is the temperature of the solid-liquid transition. Molecule `CC(C)c1ccc(N(C)C)c(C(C)C)c1NC(=O)CN1CCN(CCSc2nc3ccccc3o2)CC1` yielded a melting point of 159 to 161 °C.

As to `CC(CCCS(C)(=O)=O)C(c1cc(F)ccc1F)S(=O)(=O)c1ccc(Cl)cc1` (stereo not given), the melting point is 115 to 117 °C.

Molecule `CC(C)(C)OC(=O)NCC(O)c1ccco1` (stereo not given) came in with a melting point of 89 to 90 °C. For the molecule `COc1ccc(N=Cc2cc(OC)c(OC)c(OC)c2)cc1`, the melting point lay in the range of 78 to 86 °C. As to `Nc1ccc(Oc2ccc(Oc3ccc(N)c(O)c3)cc2)cc1O`, the melting point is over 220 °C. The molecule `CSc1cc(C(=O)O)ccc1C` showed a melting point of 175 °C. The molecule `COCCOc1ccccc1S(=O)(=O)NC(=O)Nc1nc(C)nc(OC)n1` showed a melting point of 134 to 138 °C. Regarding `COC(=O)[C@@H]1CCCN1C(=O)Nc1cc(Cl)cc(Cl)c1`, the melting point lay in the range of 110 to 112 °C. On to `Cc1ccc(N2C(=O)C(O)=C(C(=O)c3ccc(-c4ccccn4)cc3)C2c2ccc(OC(F)(F)F)cc2)nn1` (stereo not given), for which the melting point lay within 247 to 249 °C. `COC(=O)NC(Cc1ccccc1)C1CC(Cc2ccccc2)=NO1` (stereo not given) had a melting point of 87 to 88.5 °C.

`CCOC(=O)c1ncn2c1[C@@H]1CCN1C(=O)c1c-2ccc(F)c1F` showed a melting point of 234 to 236 °C. `CCCCc1nc2sc(Cl)cc2c(=O)n1CCC` came in with a melting point of 67 to 69 °C. For `Cc1cccc(-c2[nH]cnc2-c2ccc(F)c(Br)c2)n1` the value was 205 °C; for `CC(C)(C)OC(=O)N[C@H](Cc1ccccc1)C(=O)NCC(=O)OCc1ccccc1`, 133 to 134 °C. `COc1ccc(NC(=O)c2ccc(F)c(F)c2)cc1NC(=S)Nc1ccc(C(=O)O)cc1` registered a melting point of 200 to 203 °C. For `COc1ccc(-c2cc(NC(=O)CCCCN3CCCN(C(C)=O)CC3)n[nH]2)cc1` the value was 132 to 133 °C. As to `O=[N+]([O-])c1ccc2c(c1)CS(=O)(=O)N2CCF`, the melting point is 142 to 144 °C. For `CCCCN(CCCC)c1nc(-c2ccc(C(C)(C)C)cc2)cs1`, the melting point lay within 48.5 to 49.5 °C.

Take `Cc1cnc(C2=NC(C)(C(C)C)C(=O)N2)c(C(=O)c2ccc(C)s2)c1` (stereo not given): the melting point was 173 to 175 °C. Turning to `OC(CNC1CC1)c1cccc(F)c1` (stereo not given), the melting point fell in the range of 57.8 to 60 °C. For `O=C(O)c1ccsc1Cl` the value was 166 to 167 °C; for `CCCCCCCC(=O)CCCCCC(=O)N[C@@H](C)C(=O)N[C@H](CCC(=O)OCc1ccccc1)C(N)=O`, 137 to 141 °C; for `Cc1ccc(CCC(=O)NC(C)c2ccc(NS(C)(=O)=O)c(F)c2)cc1C` (stereo not given), 176 to 177 °C. As to `COc1cc(C(C)=O)ccc1OCCCN1CCN(c2n[nH]c3cc(Cl)ccc23)CC1`, the melting point is 132 to 134 °C. For `COc1c(Nc2ccccc2)ccc2ccccc12` the value was 43 to 45 °C; for `COc1cc(-c2nc(NC(=O)c3cc4ccccc4n3CCCCCC(=O)O)sc2CCC2CCCCC2)c(OC)cc1Cl`, 121 °C; for `COc1ccc(O)c2c1C(C)(C)CCC2(C)C`, 127 °C. `COc1nc(C(=O)O)ccc1CN1CC1C#N` (stereo not given) yielded a melting point of 96 to 97 °C. On to `COC(=O)c1ccc2c3cccc4cccc(c5ccc(C(=O)OC)c1c25)c43`, for which the melting point was 256 to 257 °C.

`CN(NC(=O)c1ccc(C#N)cc1)C(=O)OC(C)(C)C` registered a melting point of 179 to 181 °C.

In the case of `CCn1c(=O)oc(=O)c2ccccc21`, the melting point was 110 to 112 °C. `CCCC(=O)c1cnc2c(NCCCN3CCOCC3)cccc2c1Nc1ccccc1C` registered a melting point of 110 to 111 °C. Take `COC(=O)c1cc(-c2ncnc(C(F)F)c2Cl)c(F)cc1Cl`: the melting point is 100 to 101 °C.

Take `CSc1ccc(C(=S)N2CCCC2)cc1`: the melting point is 116 to 118 °C. `C[Si](C)(C)C#Cc1cnc(C(F)(F)F)nc1`: the melting point is 75.5 to 76 °C.

In turn, `COc1ccc(N2C(=O)[C@@H](N3C(=O)c4ccccc4C3=O)[C@H]2/C=C/c2ccccc2)cc1` (relative stereo) returned a melting point of 202 to 203 °C. For `CCCCCCCNC(=O)n1nc(Oc2ncc(C(F)(F)F)cc2Cl)c(Cl)c1C` the value was 67 to 68 °C; for `CCCCCCCCCCC=Cc1cnn(C(C(=O)Nc2c(C(C)C)cccc2C(C)C)c2ccccc2)c1` (stereo not given), 158 °C. For `Cn1c(C(F)(F)F)c(C#N)c2ccc(Cl)cc21` the value was 142 to 145 °C; for `C=CCN(CC=C)C(=O)C1=C(C(=O)Nc2cc(OC3CCCC3)c(Cl)cc2F)CCCC1`, 74 to 76 °C.

Turning to `COc1ccc(C[C@H]2NC(=O)O[C@H]2c2ccc(F)cc2)cc1` (racemic), the melting point lay within 125 to 126 °C. In turn, `CC(=O)CC(=O)NC1CCCC1` gave a melting point of 52 °C. For `CCC(=CC(CNC(=O)c1c(C)noc1C)=NO)C(C)[N+](=O)[O-]` (stereo not given) the value was 100 to 103 °C; for `CCCCN1C(=O)N(C2CCN(CC3CCCCC3)CC2)C(c2ccccc2)c2ccccc21` (stereo not given), 115 to 117 °C. As to `COC(=O)CCCNS(=O)(=O)c1ccc2ccccc2c1`, the melting point was 123 to 125 °C. Consider `O=C(CC12CC3CC(CC(C3)C1)C2)Nc1cccc2[nH]ccc12`, for which the melting point was in the range of 211 to 213 °C. The molecule `COc1ccc(C(=O)Cc2cccnc2)cc1` showed a melting point of 71 to 72 °C.

Turning to `CCOC(=O)COc1ccc2c(c1)CC(CNC(=O)OC(C)(C)C)C2` (stereo not given), the melting point was 56 to 63 °C. The molecule `Cn1cc(O)c(=O)c2ccc(C#N)cc21` gave a melting point of 305 °C. As for `CCN1CCC(C(=O)NO)(S(=O)(=O)c2ccc(OC)cc2)CC1`, the melting point amounted to 85 °C. For `CCc1c(C(=O)N(O)O)cc(C(C)(C)C)c(O)c1C(C)(C)C` the value was 147 to 150 °C; for `O=C(O)C1=Cc2cc(Cl)c(Cl)c(Cl)c2OC1C(F)(F)F` (stereo not given), 222 to 225 °C. For `Nc1nc(NC2CCC2)c2ncn(C3C=CC(CO)C3)c2n1` (stereo not given) the value was 181 to 183 °C; for `O=[N+]([O-])c1cnc2ccc(Sc3ccccc3)cn12`, 108 to 109 °C. As to `Clc1ccc(Nc2nnc(Cc3ccncc3)c3cnccc23)cc1`, the melting point lay within 227 to 228 °C.

In turn, `CC(c1ccnc(N)c1)C(O)(Cn1cncn1)c1ccc(F)cc1F` (stereo not given) registered a melting point of 182 to 185 °C.

Molecule `CCCCNC(C)=C1C(=O)OC(=O)C(C(C)=O)=C1O` showed a melting point of 112 to 114 °C. `FC(F)(F)c1ccc(-c2nc(-c3ccccn3)cs2)cc1` registered a melting point of 123 to 127 °C.

Molecule `CN1C(=O)C(CCCN2CCN(c3ccc(F)cc3)CC2)Oc2cc3c(cc21)CCCC3` (stereo not given) gave a melting point of 98 to 98.5 °C. Molecule `CC(C)=CCOC1=CC(=O)c2ccccc2C1=O` returned a melting point of 60 °C. The molecule `CCOC(=O)C1=C(C)NC(=S)N(C(=O)OCc2ccccc2)C1c1cccc([N+](=O)[O-])c1` (stereo not given) registered a melting point of 122 to 124 °C. For `CCOC(=O)c1cc(=O)c2cccc(N3CCN(C)CC3)c2o1` the value was 124 to 125 °C. For `COC(=O)c1ccc(OCC(O)c2ccc3c(c2)C(C)(C)CCS3)cc1O` (stereo not given) the value was 113 to 115 °C. On to `CC(C)C=CC1(C(F)(F)F)OCC(=O)Nc2ccc(Cl)cc21` (stereo not given), for which the melting point fell in the range of 148 to 149 °C. For `CS(=O)(=O)c1ccc(-c2sc(COc3cc(Cl)cc(Cl)c3)nc2-c2ccc(F)cc2)cc1` the value was 171 to 173 °C.
